Experimental data taken from the NIST ThermoML archive (doi:10.1021/acs.jced.8b00948).

Assay: xn = mol fraction of the nth substance listed
Conditions: for surface tension liquid-gas: Pendant drop shape; for viscosity: 101 kPa, Liquid, Concentric cylinders viscometry

COS(=O)(=O)[O-].Cn1cc[n+](C)c1 [1,3-dimethylimidazolium methylsulfate] + CCCO
Conditions	surface tension liquid-gas, 298.15 K [mN/m]	surface tension liquid-gas, 303.15 K [mN/m]	surface tension liquid-gas, 308.15 K [mN/m]	surface tension liquid-gas, 313.15 K [mN/m]	viscosity, 298.15 K [mPa·s]	viscosity, 303.15 K [mPa·s]	viscosity, 308.15 K [mPa·s]	viscosity, 313.15 K [mPa·s]
x1 = 0.039	24.5	24	23.6	23.2	3.15	2.97	2.53	2.2
x1 = 0.208	30.1	29.8	29.4	29.1	10.7	8.55	6.76	6.05
x1 = 0.382	36.1	35.8	35.5	35.2	19.6	15.4	12.2	10.5
x1 = 0.561	42.3	42.1	41.8	41.6	31.3	25.1	20.1	16.8
x1 = 0.702	47.4	47.2	46.9	46.6	42.5	34.7	28.1	23.2
x1 = 0.912	55.1	54.9	54.6	54.3	65.2	52.9	42.7	35.3
x1 = 1	58.5	58.2	57.9	57.6	78	61.9	49.9	40.9

CCn1cc[n+](C)c1.COS(=O)(=O)[O-] [1-ethyl-3-methylimidazolium methylsulfate] + CCCCCO
Conditions	surface tension liquid-gas, 298.15 K [mN/m]	surface tension liquid-gas, 303.15 K [mN/m]	surface tension liquid-gas, 308.15 K [mN/m]	surface tension liquid-gas, 313.15 K [mN/m]	viscosity, 298.15 K [mPa·s]	viscosity, 303.15 K [mPa·s]	viscosity, 308.15 K [mPa·s]	viscosity, 313.15 K [mPa·s]
x1 = 0.05	26.1	25.7	25.3	24.9	5.15	4.07	3.74	3.24
x1 = 0.284	32.3	32	31.6	31.3	14.8	11.9	10.2	8.52
x1 = 0.459	37.1	36.8	36.5	36.2	24.4	19.4	16.3	13.6
x1 = 0.613	41.4	41.1	40.8	40.5	34.7	27.3	22.5	18.7
x1 = 0.768	45.8	45.5	45.2	44.9	46.9	37	30.5	25.2
x1 = 0.922	50.3	50	49.7	49.4	60.9	48.8	40.1	33.3
x1 = 1	52.5	52.2	51.9	51.6	68.5	55.4	45.5	37.9

CCCCCO [pentan-1-ol] + CCn1cc[n+](C)c1.COS(=O)(=O)[O-]
x2 = 0
Conditions	surface tension liquid-gas [mN/m]	viscosity [mPa·s]
298.15 K	24.7	3.51
303.15 K	24.3	2.84
308.15 K	23.9	2.64
313.15 K	23.5	2.34

CCCCO [butan-1-ol] + CCn1cc[n+](C)c1.COS(=O)(=O)[O-]
x2 = 0
Conditions	surface tension liquid-gas [mN/m]	viscosity [mPa·s]
298.15 K	23.9	2.57
303.15 K	23.5	2.28
308.15 K	23.1	2.01
313.15 K	22.7	1.75

COS(=O)(=O)[O-].Cn1cc[n+](C)c1 [1,3-dimethylimidazolium methylsulfate] + CCCCO
Conditions	surface tension liquid-gas, 298.15 K [mN/m]	surface tension liquid-gas, 303.15 K [mN/m]	surface tension liquid-gas, 308.15 K [mN/m]	surface tension liquid-gas, 313.15 K [mN/m]	viscosity, 298.15 K [mPa·s]	viscosity, 303.15 K [mPa·s]	viscosity, 308.15 K [mPa·s]	viscosity, 313.15 K [mPa·s]
x1 = 0.063	26	25.6	25.2	24.8	5.34	4.58	3.86	3.2
x1 = 0.221	31.2	30.9	30.6	30.2	13.5	10.5	8.53	7.18
x1 = 0.432	38.3	38.1	37.8	37.5	26.3	20.2	16.1	13.6
x1 = 0.64	45.5	45.3	45	44.7	41.4	32.6	26.1	21.9
x1 = 0.781	50.5	50.3	50	49.7	54	43.3	34.8	29
x1 = 0.927	55.8	55.5	55.2	55	69.7	55.5	45	37
x1 = 1	58.5	58.2	57.9	57.6	78	61.9	49.9	40.9
